Measured values from article PMC9785280, “Synthesis, Antiproliferative Evaluation and QSAR Analysis of Novel Halogen- and Amidino-Substituted Benzothiazoles and Benzimidazoles” (International Journal of Molecular Sciences, 2022).
“And” between values parts separate entries of the source, which are not always exact repeats. Equal entries are not always repeated.

How the values were obtained:
[1] = system: MDCK1 (Madin–Darby canine kidney) cells; test: MTT antiproliferative assay, non-tumor MDCK1 cells; assay type: cell-based; settings: Canis lupus familiaris, MDCK1, 72 h, mean ± SD of three independent experiments, normal cells
Summary of the method: (§1)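 Cells were exposed 24 h after plating to five 10-fold dilutions (10^−7 to 10^−4 M, from 1 × 10^−2 M DMSO stock) for 72 h at 37 °C. MTT was read at 595 nm and percent viable cells computed against untreated control. GI50 came from variable-slope log(inhibitor) vs normalized response fits.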

[2] = system: HeLa (cervical adenocarcinoma) cells; test: MTT antiproliferative assay, HeLa; assay type: cell-based; settings: Homo sapiens, 72 h, mean ± SD of three independent experiments
Summary of the method: as §1

[3] = system: CaCo-2 (colon adenocarcinoma) cells; test: MTT antiproliferative assay, CaCo-2; assay type: cell-based, human; settings: Homo sapiens, Caco-2; 72 h, MTT, mean ± SD of three independent experiments
Summary of the method: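 CaCo-2 cells, plated at 2 × 10^4 cells/mL in DMEM with 10 % FBS at 37 °C/5% CO2, were treated 24 h later with five 10-fold dilutions (10^−7 to 10^−4 M) for 72 h. Viability was measured by MTT (4 h, formazan dissolved in DMSO, OD 595 nm) against background and untreated controls. GI50 came from log-concentration versus percent-inhibition fits.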

[4] = system: HuT78 (T-cell lymphoma) cells; test: MTT antiproliferative assay, HuT78; assay type: cell-based, human; settings: for IC50: Homo sapiens, HuT78, 72 h, 72 h, MTT, mean ± SD of three independent experiments; for SI (MDCK) HuT78: SI = IC50 MDCK1 / IC50 HuT78
Summary of the method: as §1

[5] = system: SW620 (colorectal adenocarcinoma, metastatic) cells; test: MTT antiproliferative assay, SW620; assay type: cell-based, human; settings: for IC50: Homo sapiens, SW-620, 72 h, MTT, mean ± SD of three independent experiments, read-out: IC50 (µM) SW620
Protocol: (§2) The growth inhibition activity was assessed according to the slightly modified procedure performed at the National Cancer Institute, Developmental Therapeutics Program.
(§3) Examined compounds were dissolved in DMSO (1 × 10^−2 M). The experiments were carried out on seven human tumor cell lines and two normal cell lines. The following cell lines were used: HeLa (human cervical adenocarcinoma; purchased from ATCC), CaCo-2 (human colorectal adenocarcinoma), HuT78 (T-cell lymphoma), THP-1 (acute monocytic leukemia), SW620 (colorectal adenocarcinoma, metastatic), MDA-MB-231 (human breast adenocarcinoma), HL60 (promyelocytic leukemia cell line), foreskin fibroblast cells (BJ) and MDCK1 (Madine–Darby canine kidney fibroblast like cells). MDCK1 cells were used between 24 and 26 passages.
(§4) Adherent cells were cultured in the Dulbecco’s modified Eagle medium—DMEM (Gibco, EU) supplemented with 10 % heat-inactivated fetal bovine serum (FBS, Gibco, EU), 2 mM glutamine, and 100 U/0.1 mg penicillin/streptomycin. Cells on suspension were cultured in RPMI 1640 (Gibco, EU) medium supplemented with 10 % FBS (Gibco, EU), 2 mM glutamine, 1 mM sodium pyruvate, 10 mM HEPES. Cells were grown in humidified atmosphere under the conditions of 37 °C/5% of CO2 gas in the CO2 incubator (IGO 150 CELLlife^TM, JOUAN, Thermo Fisher Scientific, Waltham, MA, USA). A erythrosin B (Sigma-Aldrich, St. Louis, MO, USA) dye exclusion method was used to assess cell viability before plating.
(§5) Adherent cells (HeLa, CaCo-2, MCF-7 and MDCK-1) were plated in 96-well flat bottom plates (Greiner, Frickenhausen, Austria) at a concentration of 2 × 10^4 cells/mL. Suspension cells (THP-1 and HuT78) were plated in 96-well microtiter plates (Sarstead, Newton, USA) at a concentration of 1 × 10^5 cells/mL. Twenty-four hours later, cells were treated with test agents in […] 10-fold dilutions ([…] to 10^−4 M) and incubated for further 72 h. Working dilutions were freshly prepared on the day of testing. The solvent was also tested for eventual inhibitory activity by adjusting its concentration to be the same as in working concentrations. After 72 h of incubation, the cell growth rate was evaluated by performing the MTT assay, which detects dehydrogenase activity in viable cells. For this purpose, upon completion of the incubation period, growth medium was discarded and 50 μL of MTT was added to each well at a concentration of 5 mg/mL. After four hours of incubation at 37 °C, water insoluble MTT-formazan crystals were dissolved in 150 μL of dimethyl-sulfoxide (DMSO) for adherent cells, and in 10 % SDS with 0.01 M/L HCl for cells grown in suspension. The absorbance (OD, optical density) was measured on a microplate reader (iMark, BIO RAD, Hercules, CA, USA) at 595 nm.
(§6) Percent of life cells was calculated as follows: % = OD (sample)–OD (background)/OD (control)–OD (background) × 100.
(§7) Optical density (OD) of background for adherent cells is the OD of MTT solution and DMSO; OD (background) for suspension cells is OD of the culture medium with MTT and 10% SDS with 0.01 M/L HCl; OD (control) is the OD of the cells growth without tested compounds.
(§8) Calculation of GI50 value curves and QC analysis is performed by using the Excel tools and GraphPadPrism software (La Jolla, CA), v. 5.03. Briefly, individual concentration effect curves are generated by plotting the logarithm of the concentration of tested compounds(X) vs. corresponding percent inhibition values (Y) using least squares fit. The best fit GI50 values are calculated using Log (inhibitor) versus normalized response—Variable slope equation, where Y Ľ 100/(1 ţ 10 ((LogIC50 _ X) * HillSlope)). QC criteria parameters (Z0, S:B, R2, HillSlope) were checked for every GI50 curve.

[6] = system: MDA-MB-231 (human breast adenocarcinoma) cells; test: MTT antiproliferative assay, MDA-MB-231; assay type: cell-based; settings: for IC50: Homo sapiens, MDA-MB-231, 72 h, MTT, mean ± SD of three independent experiments
Protocol: as §2, §3, §4, §5, §6, §7, §8

[7] = system: HL60 (promyelocytic leukemia) cells; test: MTT antiproliferative assay, HL60; assay type: cell-based, human; settings: for IC50: Homo sapiens, HL-60, 72 h, MTT, mean ± SD of three independent experiments; for SI (BJ) HL60: SI = IC50 BJ / IC50 HL60; for SI (MDCK) HL60: SI = IC50 MDCK1 / IC50 HL60
Protocol: as §2, §3, §4, §5, §6, §7, §8

[8] = system: THP1 (human monocytic leukemia) cells; test: MTT antiproliferative assay, THP1; assay type: cell-based; settings: for SI (BJ) THP1: SI = IC50 BJ / IC50 THP1; for SI (MDCK) THP1: SI = IC50 MDCK1 / IC50 THP1; for IC50: Homo sapiens, THP-1, 72 h, MTT, mean ± SD of three independent experiments
Protocol: as §2, §3, §4, §5, §6, §7, §8

HuT78 cells = test: Cell cycle analysis (PI, flow cytometry); assay type: cell-based, human; settings: HuT78, 5 µM, 24 h, versus untreated cells
Protocol: The HuT78 cells were plated in 6-well plates at a concentration of 5 × 10^5 cells per well and treated 24 h and 48 h with selected compounds 36c, 42a, 42c, 45a, 45b, 45c and 46c at a concentration of 5 μM. After drug treatment, the cells were fixed with ice-cold 70% ethanol in phosphate-buffered saline (PBS) and incubated with 0.3 μg/mL propidium iodide for 30 min at room temperature. Before being analyzed by flow cytometry (BD FACSCalibur, Becton Dickinson, San Jose, CA, SAD), samples were treated with 0.4 μg/mL RNase A for 5 min at room temperature. The resultant DNA histograms were generated and analyzed using FlowJo 7.6 software (Treestar, Inc, Ashland, OR, USA). Experiments were done in duplicate and the quantitative data are reported as average value ± standard deviation. Comparisons between control (non-treated) and treated groups were done using one-way analysis of variance (ANOVA) with Tukey–Kramer’s post hoc test with MedCalc statistical program. P-value less than 0.05 was considered statistically significant.

human fibroblasts (BJ) = test: MTT antiproliferative assay, normal BJ fibroblasts; assay type: cell-based; settings: for IC50: Homo sapiens, Fibroblast, 72 h, MTT, mean ± SD of three independent experiments, normal cells
Summary of the method: as §1

MCF-7^wt cells = system: MCF-7^wt cells; set-up: method as in PMID 23623491; settings: estrogen receptor-positive MCF-7^wt cells ref 17,18; cited from earlier work

| SMILES | IC50 [1] | IC50 [2] | IC50 [3] | IC50 [4] | SI (MDCK) HuT78 [4] | IC50 [5] | IC50 [6] | IC50 [7] | SI (BJ) HL60 [7] | SI (MDCK) HL60 [7] | SI (BJ) THP1 [8] | SI (MDCK) THP1 [8] | G2/M phase cell fraction (HuT78 cells) | IC50 (human fibroblasts (BJ)) | IC50 [8] | SI (BJ) HuT78 ([4]; SI = IC50 BJ / IC50 HuT78) | SI (MDCK) SW620 ([5]; SI = IC50 MDCK1 / IC50 SW620) | SI (MDCK) MDA-MB-231 ([6]; SI = IC50 MDCK1 / IC50 MDA-MB-231) | toxicity to normal BJ cells (in words) (human fibroblasts (BJ)) | IC50 (MCF-7^wt cells) |
| --- | --- | --- | --- | --- | --- | --- | --- | --- | --- | --- | --- | --- | --- | --- | --- | --- | --- | --- | --- | --- |
| c1ccc(Cn2cc(COc3ccc(-c4nc5ccc(C6=NCCCN6)cc5[nH]4)cc3)nn2)cc1 [45a] | > 100 µM | > 100 µM | > 100 µM | 4.8 ± 3.6 µM | 20.83 | > 100 µM | > 100 µM | 48.1 ± 16.4 µM | 1.15 | 2.07 | 69.5 and 70 | 125 | decrease in G2/M phase |  |  |  |  |  |  |  |
| Fc1cc(-c2nc3ccc(C4=NCCCN4)cc3[nH]2)ccc1OCc1cn(Cc2ccccc2)nn1 [45b] | 46.1 ± 14.8 µM | > 100 µM | > 100 µM | 5.5 ± 4 µM | 8.36 | > 100 µM | > 100 µM | 30 ± 12.3 µM | 2.74 | 1.54 | 32.84 | 18.44 | decrease in G2/M phase | 82.1 ± 0.4 µM | 2.5 ± 1.5 µM |  |  |  |  |  |
| COc1cc(-c2nc3ccc(C4=NCCCN4)cc3[nH]2)ccc1OCC(=O)c1ccccc1 [42c] | > 100 µM | > 100 µM | > 100 µM | 24.9 ± 4.6 µM | 4.0 | 29.8 ± 3 µM | 38.9 ± 4.2 µM | 19.5 ± 0.8 µM | 1.68 | 5.13 | 1.68 | 5.13 | decrease in G2/M phase | 32.8 ± 4.1 µM | 19.7 ± 2.4 µM | 1.32 | 3.36 | 2.57 |  |  |
| COc1cc(-c2nc3ccc(C4=NCCCN4)cc3[nH]2)ccc1OCc1cn(Cc2ccccc2)nn1 [45c] | 68.5 ± 22.7 µM | > 100 µM | > 100 µM | 4.1 ± 3.3 µM | 16.7 | > 100 µM | > 100 µM | 25.1 ± 16 µM |  | 2.73 |  |  | decrease in G2/M phase | > 100 µM | > 100 µM |  |  |  | not toxic |  |
| Nc1ccc(-c2nc3ccccc3s2)cc1 [CJM-126] |  |  |  |  |  |  |  |  |  |  |  |  |  |  |  |  |  |  |  | < 0.001 µM |
